Laboratory results published in US8168800B2, “Aβ-binding small molecules” (The Regents of the University of California, priority 2007, dated 2012).
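Wherever EC50 is given: intraneuronal AβO toxicity triggered by withdrawing tetracycline, which suppresses the C99 transgene, MTT formazan viability read-out, with tetracycline-maintained cultures taken as 100%.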
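Wherever protection of MC65 cells from death is given: intraneuronal AβO toxicity triggered by withdrawing tetracycline, which suppresses the C99 transgene, MTT formazan viability read-out, with tetracycline-maintained cultures taken as 100%.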

Each compound was assayed against T1, AβO (Homo sapiens, UniProt P05067) (assay: Electron microscopy (EM) of AβO size). Conditions: 24 hour incubation at 25° C.
T1 construct: prepared by mixing a 1:10 ratio of biotinylated and unbiotinylated Aβ1-42 peptide
T1 sequence (P05067 672-713 limits assumed): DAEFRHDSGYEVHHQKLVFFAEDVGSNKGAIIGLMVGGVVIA
Assay type: biochemical
Method: To address the possible alternative explanation that the depolymerization effect observed for Compound A in the AFM experiment is due to Compound A altered binding of AβO to the AFM mica, the effect of Compound A and Compound B and Congo Red on AβO size was further analyzed by electron microscopy (EM) (see FIG. 5A and FIG. 5B). […] The representative electron micrographs presented in FIG. 5A show the size of the AβO aggregates after incubation with either Compound A, Compound B or Congo Red. FIG. 5B contains a histogram, which illustrates the size distribution of AβO without treatment or with treatment with Compound A, Compound B or Congo Red. It is apparent from EM images in FIG. 5A and in the histograms shown in FIG. 5B that after 24 hour incubation at 25° C. and in the absence of treatment with Compound A or Congo Red, AβO grew in size.
For `Nc1c(/N=N/c2ccc(-c3ccc(/N=N/c4cc(S(=O)(=O)O)c5ccccc5c4N)cc3)cc2)cc(S(=O)(=O)O)c2ccccc12` [Congo Red], the “effect on number and size of AβO” value was “reduction in the number and size of AβO”.

What follows are compounds tested on binding of AβO to synapses of cultured mouse hippocampal neurons (assay: Synaptic binding assay). Conditions: 100 nM AβO: 1 μM compound, neurons 21 days in vitro.
Assay type: cell-based
Method: The strong binding of AβO to synapses induces aberration in synapse composition, shape, and density, and was proposed as the molecular basis for the loss of connectivity in AD (see, Lacor, et al., J. Neurosci. (2007) 27:796-807). A synaptic binding assay was performed as described by Lacor et al. (2007), which is incorporated herein by reference, with minor modifications to test the effectiveness of a compound of Formula I (e.g., Compound A) to reduce or to prevent the binding of AβO to synapses. AβO prepared from the N-terminal biotinylated Aβ1-42 peptide was incubated either with 10 equivalents compounds (i.e., 100 nM AβO: 1 μM Compound A), or with DMSO (i.e., the solvent for the compounds used only as a negative control) for five minutes, then added to cultured mouse hippocampal neurons that had been cultured 21 days in vitro. After 5 minute incubation, the neurons were washed, fixed, and stained with streptavidin-Alexa594 for bound AβO. […] The density of puncta per unit dendritic area was quantified using the Image J program and the resulting bar graph is presented in the far right panel.
In the case of `Nc1c(/N=N/c2ccc(-c3ccc(/N=N/c4cc(S(=O)(=O)O)c5ccccc5c4N)cc3)cc2)cc(S(=O)(=O)O)c2ccccc12` [Congo Red], the “fluorescent puncta (AβO bound to synapses)” value is reported as “substantially reduced number of puncta”.

What follows are compounds tested on AβO cytotoxicity (assay: Rapid MTT formazan exocytosis (MTT-FE) assay). Conditions: AβO:Compound 1:0 to 1:4, 1 hour, TS-/TI-MTT.
Assay type: cell-based
Method: In the rapid MTT formazan exocytosis (MTT-FE) assay, AβO was combined with LRL 03, LRL 15, Compound A or Congo Red (2.5 μM solution) at a ratio of 1:0, 1:1, 1:2 or 1:4 (AβO:Compound) and incubated for 1 hour, followed by measurement of the degree of formazan exocytosis. […] In particular, cellular MTT formazan was fractionated into the Triton soluble (TS) and insoluble (TI) MTT and quantified and shown in FIG. 7B.
`Nc1c(/N=N/c2ccc(-c3ccc(/N=N/c4cc(S(=O)(=O)O)c5ccccc5c4N)cc3)cc2)cc(S(=O)(=O)O)c2ccccc12` [Congo Red] was tested, and the “neutralization of AβO cytotoxicity” value was “able to neutralize AβO cytotoxicity”.

What follows are compounds tested on SDS-stable AβO in MC65 cells (assay: SDS-PAGE and Western blot (6E10) of MC65 cell homogenates). Conditions: 1 μM, 24 hour cultures, 6E10 Western blot.
Assay type: cell-based
Text: See, Maezawa et al. J Neurochem (2006) 98:57-67, which is incorporated herein by reference.
For `NC(=O)[C@H](Cc1ccc(O)c(O)c1)NC(=O)c1ccc2c(c1)nc(Nc1cccc(Br)c1)n2CCOc1ccccc1` [LRL 13, (S)—N-(1-amino-3-(3,4-dihydroxyphenyl)-1-oxopropan-2-yl)-2-(3-bromophenylamino)-1-(2-phenoxyethyl)-1H-benzo[d]imidazole-5-carboxamide, reference compound], the “levels of SDS-stable AβO” value was “decreased the levels of SDS-stable AβO”.
In the case of `NC(=O)c1ccc2c(c1)nc(Nc1ccc(I)cc1)n2CCOc1ccccc1` [LRL 19, 2-(4-iodophenylamino)-1-(2-phenoxyethyl)-1H-benzo[d]imidazole-5-carboxamide, reference compound], the “levels of SDS-stable AβO” value is reported as “decreased the levels of SDS-stable AβO”.

These compounds were tested on MC65 cells (assay: MC65 cell protection (cell viability) assay). Conditions: not given.
`NC(=O)[C@H](Cc1ccc(O)c(O)c1)NC(=O)c1ccc2c(c1)nc(Nc1cccc(Br)c1)n2CCOc1ccccc1` [LRL 13, (S)—N-(1-amino-3-(3,4-dihydroxyphenyl)-1-oxopropan-2-yl)-2-(3-bromophenylamino)-1-(2-phenoxyethyl)-1H-benzo[d]imidazole-5-carboxamide, reference compound] was tested, and the “protection of MC65 cells from death” value was “protect MC65 cells from death”.
`Cc1c(C(N)=O)c(=O)oc2cc3c(cc12)nc(Nc1ccccc1Br)n3CCOc1ccccc1` [Compound C, 2-(2-Bromo-phenylamino)-8-methyl-6-oxo-3-(2-phenoxy-ethyl)-3,6-dihydro-chromeno[6,7-d]imidazole-7-carboxylic acid amide] was tested, and the “protection of MC65 cells from death” value was “inactive”.
In the case of `NC(=O)c1ccc2c(c1)nc(Nc1ccc(I)cc1)n2CCOc1ccccc1` [LRL 19, 2-(4-iodophenylamino)-1-(2-phenoxyethyl)-1H-benzo[d]imidazole-5-carboxamide, reference compound], the “protection of MC65 cells from death” value is reported as “protect MC65 cells from death”.

Same assay, conditions: MC65
Work on `COc1ccc(Nc2nc3cc4c(C)c(C(N)=O)c(=O)oc4cc3n2Cc2cccc(Br)c2)cc1` [D.20] yielded an EC50 of less than 1000 nM.
For `Cc1c(C(N)=O)c(=O)oc2cc3c(cc12)nc(Nc1cccc(I)c1)n3CC1CC1` [D.13], the EC50 was less than 1000 nM.
Work on `COc1ccc(Nc2nc3cc4c(C)c(C(N)=O)c(=O)oc4cc3n2Cc2cccc(Cl)c2)cc1` [D.22] yielded an EC50 of less than 1000 nM.
Compound `COc1cccc(Nc2nc3cc4c(C)c(C(N)=O)c(=O)oc4cc3n2Cc2cccc(I)c2)c1` [D.17] has an EC50 of less than 1000 nM.
`COc1ccc(Nc2nc3cc4c(C)c(C(N)=O)c(=O)oc4cc3n2CCc2ccc(Br)cc2)cc1` [D.26] gave an EC50 of less than 1000 nM.
`Cc1c(C(N)=O)c(=O)oc2cc3c(cc12)nc(Nc1ccc(OC(F)(F)F)cc1)n3Cc1cccc(I)c1` [D.30] gave an EC50 of less than 1000 nM.
For `Cc1c(C(N)=O)c(=O)oc2cc3c(cc12)nc(Nc1ccc(I)cc1)n3CCOc1ccccc1` [D.2], the EC50 was less than 1000 nM.
`COc1ccc(Nc2nc3cc4c(C)c(C(N)=O)c(=O)oc4cc3n2Cc2ccc(Cl)cc2)cc1` [D.23] showed an EC50 of less than 1000 nM.
For `Cc1c(C(N)=O)c(=O)oc2cc3c(cc12)nc(Nc1cccc(I)c1)n3CCc1ccc(Br)cc1` [D.8], the EC50 was less than 1000 nM.
In the case of `Cc1c(C(N)=O)c(=O)oc2cc3c(cc12)nc(Nc1ccc(OC(F)(F)F)cc1)n3Cc1cccc(Cl)c1` [D.28], the EC50 is reported as less than 1000 nM.
In the case of `COc1ccc(Nc2nc3cc4c(C)c(C(N)=O)c(=O)oc4cc3n2CCc2cccc(Cl)c2)cc1` [D.27], the EC50 is reported as less than 1000 nM.
With `Cc1c(C(N)=O)c(=O)oc2cc3c(cc12)nc(Nc1cccc(I)c1)n3Cc1cccc(I)c1` [D.15] the EC50 was less than 1000 nM.
Compound `Cc1c(C(N)=O)c(=O)oc2cc3c(cc12)nc(Nc1cccc(I)c1)n3CCO` [D.5] has an EC50 greater than 10000 nM.
Compound `COc1ccc(Nc2nc3cc4c(C)c(C(N)=O)c(=O)oc4cc3n2Cc2cccc(I)c2)cc1` [D.16] has an EC50 of less than 1000 nM.
For `Cc1c(C(N)=O)c(=O)oc2cc3c(cc12)nc(Nc1ccc(C#N)cc1)n3Cc1ccc(Br)cc1` [D.34], the EC50 was less than 1000 nM.
`CSc1cccc(Nc2nc3cc4c(C)c(C(N)=O)c(=O)oc4cc3n2Cc2cccc(I)c2)c1` [D.18] gave an EC50 of less than 1000 nM.
`Cc1c(C(N)=O)c(=O)oc2cc3c(cc12)nc(Nc1ccc(OC(F)(F)F)cc1)n3Cc1ccc(Cl)cc1` [D.31] was tested, and the EC50 was less than 1000 nM.
For `COc1ccc(Nc2nc3cc4c(C)c(C(N)=O)c(=O)oc4cc3n2Cc2cccc(F)c2)cc1` [D.21], the EC50 was less than 1000 nM.
`Cc1c(C(N)=O)c(=O)oc2cc3c(cc12)nc(Nc1ccccc1Br)n3CCOc1ccccc1` [D.3] gave an EC50 greater than 10000 nM.
For `COc1ccc(Nc2nc3cc4c(C)c(C(N)=O)c(=O)oc4cc3n2CCOc2ccccc2)cc1` [D.10], the EC50 was less than 1000 nM.
For `Cc1c(C(N)=O)c(=O)oc2cc3c(cc12)nc(Nc1cccc(I)c1)n3C` [D.11], the EC50 was 1000 to 10000 nM.
Work on `COc1ccc(Nc2nc3cc4c(C)c(C(N)=O)c(=O)oc4cc3n2Cc2ccc(I)cc2)cc1` [D.25] yielded an EC50 of less than 1000 nM.
`COCCn1c(Nc2cccc(I)c2)nc2cc3c(C)c(C(N)=O)c(=O)oc3cc21` [D.6] was tested, and the EC50 was greater than 10000 nM.
`Cc1c(C(N)=O)c(=O)oc2cc3c(cc12)nc(Nc1cccc(I)c1)n3CC(F)F` [D.14] was tested, and the EC50 was 1000 to 10000 nM.
Work on `CCCn1c(Nc2cccc(I)c2)nc2cc3c(C)c(C(N)=O)c(=O)oc3cc21` [D.12] yielded an EC50 of less than 1000 nM.
Compound `COc1ccc(CCn2c(Nc3cccc(I)c3)nc3cc4c(C)c(C(N)=O)c(=O)oc4cc32)cc1` [D.7] has an EC50 of less than 1000 nM.
Compound `COc1ccc(Nc2nc3cc4c(C)c(C(N)=O)c(=O)oc4cc3n2Cc2cccc(I)c2)c(OC)c1` [D.19] has an EC50 of less than 1000 nM.
In the case of `Cc1c(C(N)=O)c(=O)oc2cc3c(cc12)nc(Nc1ccc(OC(F)(F)F)cc1)n3Cc1cccc(Br)c1` [D.29], the EC50 is reported as less than 1000 nM.
Compound `C#CCn1c(Nc2cccc(I)c2)nc2cc3c(C)c(C(N)=O)c(=O)oc3cc21` [D.4] has an EC50 of 1000 to 10000 nM.
With `Cc1c(C(N)=O)c(=O)oc2cc3c(cc12)nc(Nc1ccc(C#N)cc1)n3Cc1ccc(I)cc1` [D.35] the EC50 was less than 1000 nM.
Compound `COc1ccc(Nc2nc3cc4c(C)c(C(N)=O)c(=O)oc4cc3n2-c2cccc(Br)c2)cc1` [D.33] has an EC50 greater than 10000 nM.
For `COc1ccc(Nc2nc3cc4c(C)c(C(N)=O)c(=O)oc4cc3n2Cc2ccc(Br)cc2)cc1` [D.24], the EC50 was less than 1000 nM.
With `Cc1c(C(N)=O)c(=O)oc2cc3c(cc12)nc(Nc1ccc(OC(F)(F)F)cc1)n3Cc1ccc(Br)cc1` [D.32] the EC50 was less than 1000 nM.
`Cc1c(C(N)=O)c(=O)oc2cc3c(cc12)nc(Nc1cccc(I)c1)n3CCOc1ccccc1` [D.9] was tested, and the EC50 was less than 1000 nM.
In the case of `Cc1c(C(N)=O)c(=O)oc2cc3c(cc12)nc(Nc1cccc(Br)c1)n3CCOc1ccccc1` [D.1], the EC50 is reported as less than 1000 nM.
